According to article PMC10458862, “Binding Specificity of a Novel Cyclo/Maltodextrin-Binding Protein and Its Role in the Cyclodextrin ABC Importer System from Thermoanaerobacterales” (Molecules, 2023):
Where two headings read alike, the source gives them in different places. Marks after values point to notes of the source that are not given here.

Key:
[1] = biological target: T1, MdxE (Thermoanaerobacter mathranii subsp. mathranii, UniProt A0ABM5LRQ5); test: ANS fluorescence determination of protein surface hydrophobicity (Ho) of MdxE-ligand complexes; design: species or system Thermoanaerobacter mathranii subsp. mathranii A3; details: for Ho (protein surface hydrophobicity, slope of RFU versus MdxE concentration): MdxE 2–14 µM, 350 µM ligand, 20 µM ANS, λmax = 485 nm, letters = Tukey groups (p < 0.05)
T1 sequence (A0ABM5LRQ5 entry or part of it): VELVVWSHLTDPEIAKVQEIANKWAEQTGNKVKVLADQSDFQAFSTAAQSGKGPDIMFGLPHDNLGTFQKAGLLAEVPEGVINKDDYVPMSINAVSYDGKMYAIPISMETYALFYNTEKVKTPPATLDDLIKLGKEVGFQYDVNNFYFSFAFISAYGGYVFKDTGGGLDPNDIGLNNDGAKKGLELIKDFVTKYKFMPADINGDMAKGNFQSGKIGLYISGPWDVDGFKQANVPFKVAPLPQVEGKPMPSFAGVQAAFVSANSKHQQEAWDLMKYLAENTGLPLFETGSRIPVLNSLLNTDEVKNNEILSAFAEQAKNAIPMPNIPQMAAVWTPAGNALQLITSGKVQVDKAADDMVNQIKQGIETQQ
Procedure: To evaluate the switching from an open to a closed form of productive MdxE-ligand complexes obtained with the sugars listed in Table 1, changes in the protein surface hydrophobicity (Ho) of MdxE-ligand complexes using the fluorescent probe 8-anilinonaphthalene-1-sulfonate (ANS) were determined (Figure 4).
The changes in H0 associated with the open-to-closed conformational changes of productive MdxE-ligand complexes were determined based on the method described previously, using a Nanodrop ND-3300 fluorospectrometer (Thermo Fisher, Waltham, MA, USA) controlled by ND-3300 v2.8.0 software with ANS as a fluorescence probe at an excitation wavelength of 365 nm and 400–600 nm as the range for emission scan. The fluorescent response was measured in RFU using buffer C for all solutions. […] For H0 measurements, MdxE-ligand complexes were heated at 55 °C for 10 min. Subsequently, ANS was added to form the (MdxE-ligand)-ANS complexes, and the solutions were heated again at 55 °C for 3 min; then, the solutions were cooled to room temperature. Data were analyzed in triplicate (n = 3), and H0 was estimated as the slope of the linear curve fitted for RFU versus MdxE concentrations plotted at the maximum emission wavelength (λ = 485 nm) using the emtrends() function from emmeans package in R [58, 59]. A Tukey’s test (α = 0.05) for multiple comparisons was performed to determine significant differences in H0 between CDs and linear dextrins tested. All fluorescence measurements were made at 22 °C.

[2] = biological target: TvuCMBP; design: method as in PMID 17371546; details: ND = not detected; cited from earlier work
[3] = biological target: AcyMBP; design: method as in PMID 11053372; details: cited from earlier work
[4] = biological target: T1, MdxE; test: ITC measurements of MdxE-ligand binding; design: species or system Thermoanaerobacter mathranii subsp. mathranii A3
Procedure: To assess the binding affinities of MdxE toward different linear dextrins and CDs for the CM-CD pathway, functional experiments of MdxE-ligand complex formation were performed using isothermal titration calorimetry (ITC) to determine the dissociation constant (Kd) and enthalpy (ΔH) for ligand binding, as well as the Gibbs free energy (ΔG) contribution to the binding (Figure 3).
Purified MdxE at 4 μM was titrated with 0.8 mM CDs and linear dextrins using a VP-ITC calorimeter (Cytiva) at 55 °C. In all measurements, the sample cell and syringe were filled with protein and ligand solution, respectively, and the reference cell was filled with ultrapure water. The stirring speed of the sample syringe during measurements was 250 rpm. After baseline stabilization and an initial injection of 2 µL, 25 successive injections of 11 µL were carried out with a 5 min equilibration period between injections. Since both protein and ligands were in buffer C, the heat of dilution was neglected in the experiments. The resulting data were analyzed in triplicate (n = 3) using the Origin 7 ITC analysis v7.0 software from Microcal by fitting the titration curves to a single binding site model.

[5] = biological target: EcoMBP; details: cited from earlier work
[6] = biological target: CymE; design: method as in PMID 9573146; details: ND = not detected; cited from earlier work
[7] = ITC, 55 °C, 4 μM MdxE titrated with 0.8 mM ligand, single binding site model, n = 3, ND = not detected, read-out: Kd MdxE

## OC[C@H]1O[C@H](O[C@H]2[C@H](O)[C@@H](O)C(O)O[C@@H]2CO)[C@H](O)[C@@H](O)[C@@H]1O (mixture of isomers) [G2, maltose]
[1]
  Ho (protein surface hydrophobicity, slope of RFU versus MdxE concentration): 15.1 ^d
[1]; fluorescence analysis with ANS
  MdxE-ligand complex formation by fluorescence measurements: no MdxE-G2 complex formation was observed
[2]
  Kd: 0.41 µM
[3]
  Kd: 1.5 µM
[4]; ITC, 55 °C, 4 μM MdxE titrated with 0.8 mM ligand, single binding site model, n = 3, ND = not detected
  Kd MdxE: no binding interaction was observed
[5]
  Kd: 1 µM

## OC[C@H]1O[C@H](O[C@H]2[C@H](O)[C@@H](O)[C@@H](O[C@H]3[C@H](O)[C@@H](O)C(O)O[C@@H]3CO)O[C@@H]2CO)[C@H](O)[C@@H](O)[C@@H]1O (mixture of isomers) [G3, maltotriose]
[1]
  Ho (protein surface hydrophobicity, slope of RFU versus MdxE concentration): 24.3 ^c
[2]
  Kd: 0.97 µM
[4]; [7]
  Kd: 3.02 µM
[4]; ITC, 55 °C, ND = not detected
  ΔG: -8.50 kcal/mol
  ΔH: -8.64 kcal/mol
[5]
  Kd: 0.2 µM

## OC[C@H]1O[C@@H]2O[C@H]3[C@H](O)[C@@H](O)[C@@H](O[C@H]4[C@H](O)[C@@H](O)[C@@H](O[C@H]5[C@H](O)[C@@H](O)[C@@H](O[C@H]6[C@H](O)[C@@H](O)[C@@H](O[C@H]7[C@H](O)[C@@H](O)[C@@H](O[C@H]1[C@H](O)[C@H]2O)O[C@@H]7CO)O[C@@H]6CO)O[C@@H]5CO)O[C@@H]4CO)O[C@@H]3CO [α-CD]
[6]
  Kd: 0.02 µM
[1]
  Ho (protein surface hydrophobicity, slope of RFU versus MdxE concentration): 37.1 ^a
[1]; fluorescence analysis with ANS
  open-to-closed conformational change of MdxE: solely triggered
[2]
  Kd: 0.73 µM
[4]
  Kd: 0.61 µM
[4]; ITC, 55 °C, ND = not detected
  ΔH: -6.83 kcal/mol

## OC[C@H]1O[C@@H]2O[C@H]3[C@H](O)[C@@H](O)[C@@H](O[C@H]4[C@H](O)[C@@H](O)[C@@H](O[C@H]5[C@H](O)[C@@H](O)[C@@H](O[C@H]6[C@H](O)[C@@H](O)[C@@H](O[C@H]7[C@H](O)[C@@H](O)[C@@H](O[C@H]8[C@H](O)[C@@H](O)[C@@H](O[C@H]1[C@H](O)[C@H]2O)O[C@@H]8CO)O[C@@H]7CO)O[C@@H]6CO)O[C@@H]5CO)O[C@@H]4CO)O[C@@H]3CO [β-CD]
[6]
  Kd: 0.14 µM
[1]
  Ho (protein surface hydrophobicity, slope of RFU versus MdxE concentration): 41.8 ^b
[1]; fluorescence analysis with ANS
  open-to-closed conformational change of MdxE: solely triggered
[2]
  Kd: 1.2 µM
[4]; [7]
  Kd: 2.04 µM
[4]; ITC, 55 °C, ND = not detected
  ΔH: -5.28 kcal/mol
[5]
  Kd: 1 µM

## OC[C@H]1O[C@@H]2O[C@H]3[C@H](O)[C@@H](O)[C@@H](O[C@H]4[C@H](O)[C@@H](O)[C@@H](O[C@H]5[C@H](O)[C@@H](O)[C@@H](O[C@H]6[C@H](O)[C@@H](O)[C@@H](O[C@H]7[C@H](O)[C@@H](O)[C@@H](O[C@H]8[C@H](O)[C@@H](O)[C@@H](O[C@H]9[C@H](O)[C@@H](O)[C@@H](O[C@H]1[C@H](O)[C@H]2O)O[C@@H]9CO)O[C@@H]8CO)O[C@@H]7CO)O[C@@H]6CO)O[C@@H]5CO)O[C@@H]4CO)O[C@@H]3CO [γ-CD]
[6]
  Kd: 0.3 µM
[1]
  Ho (protein surface hydrophobicity, slope of RFU versus MdxE concentration): 24.5 ^c
[2]
  Kd: 0.23 µM
[4]; [7]
  Kd: 1.51 µM
[4]; ITC, 55 °C, ND = not detected
  ΔH: -6.50 kcal/mol

## maltoheptaose [G7]
[6]
  Kd: 70 µM
[1]
  Ho (protein surface hydrophobicity, slope of RFU versus MdxE concentration): 27.1 ^c
[4]; [7]
  Kd: 0.91 µM
[4]; ITC, 55 °C, ND = not detected
  ΔG: -9.09 kcal/mol
  ΔH: -11.54 kcal/mol

## maltohexaose [G6]
[1]
  Ho (protein surface hydrophobicity, slope of RFU versus MdxE concentration): 26.8 ^c
[4]; [7]
  Kd: 1.85 µM
[4]; ITC, 55 °C, ND = not detected
  ΔG: -8.61 kcal/mol
  ΔH: -12.98 kcal/mol

## maltopentaose [G5]
[1]
  Ho (protein surface hydrophobicity, slope of RFU versus MdxE concentration): 27.3 ^c
[2]
  Kd: 0.2 µM
[4]; [7]
  Kd: 2.44 µM
[4]; ITC, 55 °C, ND = not detected
  ΔG: -8.30 kcal/mol
  ΔH: -13.94 kcal/mol
